Source: patent publication US7601717B2, “Pterin analogs” (BioMarin Pharmaceutical Inc., priority 2008, dated 2009)
Counter-ions that a name gives are not always drawn.

How the values were obtained:
[1] = Pharmacokinetics and bioavailability, single intravenous or oral doses, partial Latin square crossover; format: in vivo, male cynomolgus monkeys; conditions: male, cynomolgus monkey, plasma; intravenous; title 5 mg/kg, text 2 mg/kg; n=6
[2] = test system: human umbilical vein endothelial cells (HUVEC); assay: Nitric oxide production (nitrite+nitrate) in NAS-treated HUVEC; format: cell-based; conditions: 5-22 hours treatment
Experimental: Cultured human umbilical vein endothelial cells (HUVEC) were pretreated with 3 mM N-acetylserotonin (NAS), an inhibitor of the enzyme sepiapterin reductase. Inhibition of this pathway typically results in loss of endogenous BH4, depressing the endogenous eNOS activity far below normal and provides an assay to test for restoration of eNOS activity.
Thus, subconfluent HUVECs were seeded in a 24-well plate and grown overnight in EGM2 medium (full growth medium). The next morning, fresh medium was added to the cells (300 μL/well), 3 mM N-acetylserotonin (NAS), an inhibitor of the enzyme sepiapterin reductase (a member of the synthesis pathway for endogenous BH4) was added to the cells to decrease the endogenous BH4 levels. After an incubation of 1.5 hours, 50, 100, or […] BH4 or compound of Example 5, Example 6, Example 7, or Example 9 were added to the cells. The cells were allowed to react with the BH4 or the compound of Example 5, Example 7, or Example 9 for 5-22 hours. The production of NO was then measured as changes in total (nitrite+nitrate) by the Griess reaction subsequent to nitrate reductase treatment. 90 μL of reaction mixture (25 mM Tris-HCL, pH7.4, 1 μM FAD, 1 μM FMN, 100 μM L-Arginin 2.5 mM CaCl2, 1 mM NADPH, 0.04 mg/ml Calmodulin) was mixed with 5 μl of eNOS (15 units/ml) and 5 μl of BH4 or BH4 analogs (1, 10, 100 μM), followed by incubation in a 37° C. water bath for 90 minutes. Then 100 μl of water and 20 μl of the nitrite fluorescent probe DAN (2,3-diaminonaphthalene, 316 μM) were added to each reaction and incubated at room temperature for 10 minutes. The dye DAN reacts with nitrite to yield the fluorescent product naphthotriazole. The reaction was then stopped by adding 10 μl of NaOH (2.8 M), and the fluorescence of the samples was read using excitation frequency 375 nm and emission frequency 415 nm. The percentage of nitrite+nitrate with BH4 or compound of Example 5, Example 7, or Example 9 is shown in FIG. 17 (after 5 hours); FIG. 18 (after 17 hours); and FIG. 19 (after 22 hours). The results for Example 6 are shown in FIG. 20 (after 5 hours) and FIG. 21 (after 20 hours).

[3] = test system: Spontaneously Hypertensive rats (SHR); assay: Anti-hypertensive effect, tail-cuff systolic blood pressure in SHR; format: in vivo, rat; conditions: SHR; for decrease in systolic blood pressure (SBP): 3 weeks
Experimental: This study was to determine if the BH4 analogs have a similar hypotensive effect and to determine the steady state pharmacokinetics (PK) profiles of plasma BH4 concentrations.
Male Wistar-Kyoto (WKY) rats and SHR rats (Elevage Janvier, France, 7 weeks old) were housed seven days prior to the beginning of experiments with free access to standard chow and water and maintained on an inversed 12 h dark/light cycle (10:00/22:00). After a one week acclimation period, the animals were trained to the tail-cuff system during one week (3 sessions). The following week, two baseline measurements of blood pressure were performed.
The rats (10 weeks old) then received respective treatments of water, vehicle, 2, 10, or 30 mg/kg/day of BH4 analog (Example 5, Val-BH4) or 100 mg/kg/day BH4 by oral gavage (8 mL/kg, dissolved in 100 μM ascorbic acid) performed once a day during 21 days of treatment. The doses of BH4 analog were prepared as mg/kg equivalents of BH4 (calculated using BH4 and BH4 analog 2HCl molecular weights). Body weight was monitored 3 times per week and the most recent body weight was used to adjust drug and vehicle daily intake. Seven experimental groups of rats were evaluated: Group 1—normotensive WKY rats and water gavage; Group 2—hypertensive SHR rats and water gavage; Group 3—hypertensive SHR rats and vehicle gavage; Group 4—hypertensive SHR rats and BH4 100 mg/kg/day gavage; Group 5—hypertensive SHR rats and BH4 analog 2 mg/kg/day gavage; Group 6—hypertensive SHR rats and BH4 analog 10 mg/kg/day gavage; Group 7—hypertensive SHR rats and 30 mg/kg/day BH4 analog gavage. To account for animal loss or animal disqualification during experimental handling, 10 rats were used in each group, with the expectation to obtain interpretable results for at least 8. Systolic blood pressure (SBP) and heart rate (HR) were measured twice weekly during the 3-week treatment period.
Systolic blood pressure (SBP) and heart rate (HR) were measured using the tail-cuff method, twice before the beginning of the treatment and twice weekly during the 3 week treatment period (6 measurements during the treatment period). Rats were placed in a plastic restraint and warmed to […]. A pneumatic pulse sensor was attached to the tail. After cuff inflation, SBP was measured and HR was determined by counting pulse numbers per minute. Data for each rat was taken an average of at least 4 stable readings. At least 10 cuff inflations were performed for each BP measurement.

CC(C)[C@H](N)C(=O)O[C@@H](C)[C@H](O)[C@H]1CNc2nc(N)[nH]c(=O)c2N1 [Example 5, 2-Amino-3-methyl-butyric acid 2-(2-amino-4-oxo-3,4,5,6,7,8-hexahydro-pteridin-6-yl)-2-hydroxy-1-methyl-ethyl ester dihydrochloride]
AUC(0-inf) [1]: 5.24 µM·h
AUC(0-t) [1]: 4.17 µM·h
Cmax [1]: 13.1 µM
Tmax [1]: 4.8 min
NO production (nitrite+nitrate) [2]: increased NO production in a dose-dependent manner
decrease in systolic blood pressure (SBP) ([3]; 2 mg/kg/day oral gavage (BH4 equivalents)): 6.8 mmHg
decrease in SBP compared with BH4 100 mg/kg ([3]; 10 mg/kg/day during 3 weeks, FIG. 31): decreased SBP to the same extent as a 10-fold greater dose of BH4
decrease in systolic blood pressure (SBP) ([3]; 10 mg/kg/day oral gavage (BH4 equivalents)): 13.9 mmHg
decrease in systolic blood pressure (SBP) ([3]; 30 mg/kg/day oral gavage (BH4 equivalents)): 13.7 mmHg
